Results taken from PubChem BioAssay AID248 (DTP/NCI, 2004).
“And” between values parts separate entries of the source, which are not always exact repeats. Equal values may be shown once. Inconclusive results and toxic doses are left out. No stated cut-off is given here; in the data, active means T/C of 150% or more; inactive means T/C below 125%.

Test system: L1210 leukemia ip in BDF1 mice, survival T/C
Test: NCI In Vivo Anticancer Drug Screen. Data for tumor model L1210 Leukemia (intraperitoneal) in B6D2F1 (BDF1) mice
Details: endpoint: mean survival time, higher = longer survival
Procedure, shortened: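 Transplantable tumor model; survival measured in treated vs vehicle control mice. Value = treated/control.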

[1] = dose: 100.0 mg/kg/injection, schedule: Q04DX003 (ip), vehicle: saline
[2] = dose: 200.0 mg/kg/injection, schedule: Q04DX003 (ip), vehicle: saline
[3] = dose: 400.0 mg/kg/injection, schedule: Q04DX003 (ip), vehicle: saline
[4] = dose: 100.0 mg/kg/injection, schedule: Q01DX001 (ip), vehicle: saline
[5] = dose: 200.0 mg/kg/injection, schedule: Q01DX001 (ip), vehicle: saline
[6] = dose: 100.0 mg/kg/injection, schedule: Q04DX003 (ip), vehicle: saline with Tween-80
[7] = dose: 200.0 mg/kg/injection, schedule: Q04DX003 (ip), vehicle: saline with Tween-80
[8] = dose: 400.0 mg/kg/injection, schedule: Q04DX003 (ip), vehicle: saline with Tween-80
[9] = dose: 100.0 mg/kg/injection, schedule: Q01DX009 (sc), vehicle: olive oil, sesame oil, peanut oil
[10] = dose: 200.0 mg/kg/injection, schedule: Q01DX009 (sc), vehicle: olive oil, sesame oil, peanut oil
[11] = dose: 100.0 mg/kg/injection, schedule: Q01DX009 (ip), vehicle: saline with Tween-80
[12] = dose: 200.0 mg/kg/injection, schedule: Q01DX009 (ip), vehicle: saline with Tween-80
[13] = dose: 100.0 mg/kg/injection, schedule: Q01DX001 (ip), vehicle: carboxymethylcellulose (CMC)
[14] = dose: 200.0 mg/kg/injection, schedule: Q01DX001 (ip), vehicle: carboxymethylcellulose (CMC)
[15] = dose: 400.0 mg/kg/injection, schedule: Q01DX001 (ip), vehicle: carboxymethylcellulose (CMC)
[16] = dose: 50.0 mg/kg/injection, schedule: Q01DX009 (ip), vehicle: saline with Tween-80
[17] = dose: 100.0 mg/kg/injection, schedule: Q04DX003 (ip), vehicle: Klucel (hydroxypropylcellulose) (HPC)
[18] = dose: 200.0 mg/kg/injection, schedule: Q04DX003 (ip), vehicle: Klucel (hydroxypropylcellulose) (HPC)
[19] = dose: 400.0 mg/kg/injection, schedule: Q04DX003 (ip), vehicle: Klucel (hydroxypropylcellulose) (HPC)
[20] = dose: 400.0 mg/kg/injection, schedule: Q01DX001 (ip), vehicle: saline
[21] = dose: 100.0 mg/kg/injection, schedule: Q01DX009 (ip), vehicle: saline
[22] = dose: 200.0 mg/kg/injection, schedule: Q01DX009 (ip), vehicle: saline
[23] = dose: 400.0 mg/kg/injection, schedule: Q01DX009 (ip), vehicle: saline

Measured: T/C

COc1cc(NC(C)CCCN2C(=O)c3ccccc3C2=O)c2nc(-c3ccc(Cl)cc3)ccc2c1 (centres undefined)
inactive: dose: 50.0 mg/kg/injection, schedule: Q04DX003 (ip), vehicle: saline 90 % of control | dose: 100.0 mg/kg/injection, schedule: Q01DX009 (ip), vehicle: other 94 % of control | [1] 92 % of control | dose: 200.0 mg/kg/injection, schedule: Q01DX009 (ip), vehicle: other 94 % of control | [2] 90 % of control | dose: 400.0 mg/kg/injection, schedule: Q01DX009 (ip), vehicle: other 101 % of control | [3] 87 % of control

[N-]=[N+]=NC1=NN2NNN=C2C(N)=C1
inactive: [4] 105 % of control | [5] 107 % of control

NC(=O)c1c(Br)c(Br)c(Br)c(Br)c1C(=O)O (tested in a mixture with another compound)
inactive: dose: 50.0 mg/kg/injection, schedule: Q04DX003 (ip), vehicle: saline with Tween-80 96 % of control | [6] 91 % of control and 100 % of control and 90 % of control | [7] 93 % of control and 98 % of control | [8] 93 % of control and 90 % of control

OC(c1ccc(Cl)cc1)(c1ccc(Cl)cc1)C(F)(F)F
inactive: [9] 113 % of control | dose: 100.0 mg/kg/injection, schedule: Q04DX003 (sc), vehicle: olive oil, sesame oil, peanut oil 100 % of control | [10] 101 % of control | dose: 200.0 mg/kg/injection, schedule: Q04DX003 (sc), vehicle: olive oil, sesame oil, peanut oil 97 % of control | dose: 400.0 mg/kg/injection, schedule: Q04DX003 (sc), vehicle: olive oil, sesame oil, peanut oil 113 % of control

CNC(=O)Nc1ccc(C(=O)NCC(=O)O)cc1
inactive: [11] 100 % of control and 105 % of control | dose: 100.0 mg/kg/injection, schedule: Q04DX002 (ip), vehicle: saline 100 % of control and 92 % of control | [6] 98 % of control | [12] 93 % of control and 100 % of control | dose: 200.0 mg/kg/injection, schedule: Q04DX002 (ip), vehicle: saline 100 % of control and 91 % of control | [7] 91 % of control | dose: 400.0 mg/kg/injection, schedule: Q01DX009 (ip), vehicle: saline with Tween-80 105 % of control and 110 % of control | dose: 400.0 mg/kg/injection, schedule: Q04DX002 (ip), vehicle: saline 95 % of control and 96 % of control | [8] 98 % of control

COc1cc(OC)c(/C=C/c2ccc3ccccc3[n+]2C)c(OC)c1
inactive: dose: 0.5 mg/kg/injection, schedule: Q01DX009 (oral), vehicle: carboxymethylcellulose (CMC) 104 % of control | dose: 1.0 mg/kg/injection, schedule: Q01DX009 (oral), vehicle: carboxymethylcellulose (CMC) 103 % of control | dose: 2.0 mg/kg/injection, schedule: Q01DX009 (oral), vehicle: carboxymethylcellulose (CMC) 111 % of control | dose: 4.0 mg/kg/injection, schedule: Q01DX009 (oral), vehicle: carboxymethylcellulose (CMC) 103 % of control | dose: 8.0 mg/kg/injection, schedule: Q01DX009 (oral), vehicle: carboxymethylcellulose (CMC) 103 % of control | dose: 31.3 micrograms/kg/injection, schedule: Q04DX003 (ip), vehicle: saline 100 % of control | dose: 62.5 micrograms/kg/injection, schedule: Q04DX003 (ip), vehicle: saline 101 % of control | dose: 125.0 micrograms/kg/injection, schedule: Q04DX003 (ip), vehicle: saline 95 % of control

Cc1ccccc1C1SCCCS1
inactive: [6] 101 % of control | [7] 96 % of control | [8] 107 % of control

COc1ccc(C=Nc2ccc([N+](=O)[O-])cc2O)cc1
inactive: [13] 96 % of control | [14] 94 % of control | [15] 90 % of control

N#CC(OC(OC(C#N)c1ccccc1)c1ccccc1)c1ccccc1 (centres undefined)
inactive: [16] 93 % of control | [11] 93 % of control | [12] 90 % of control

CC(=O)N(C)c1ccc(NC(=O)Nc2ccc(C)cc2[N+](=O)[O-])cc1
inactive: [17] 94 % of control | [18] 94 % of control | [19] 94 % of control

COCC(COC)CC1CO1 (centres undefined)
inactive: [16] 96 % of control | [11] 100 % of control | [12] 96 % of control

CN(C)P1(=O)NCCCO1 (centres undefined)
inactive: [4] 100 % of control | [5] 110 % of control | [20] 109 % of control

Nc1c[nH]c(=S)s1
inactive: dose: 100.0 mg/kg/injection, schedule: Q01DX001 (ip), vehicle: Klucel (hydroxypropylcellulose) (HPC) 94 % of control | dose: 200.0 mg/kg/injection, schedule: Q01DX001 (ip), vehicle: Klucel (hydroxypropylcellulose) (HPC) 99 % of control

O=C(COc1ccc(Cl)c(Cl)c1)NCCc1ccncc1
inactive: dose: 50.0 mg/kg/injection, schedule: Q04DX002 (ip), vehicle: Klucel (hydroxypropylcellulose) (HPC) 103 % of control | dose: 100.0 mg/kg/injection, schedule: Q04DX002 (ip), vehicle: Klucel (hydroxypropylcellulose) (HPC) 118 % of control | dose: 200.0 mg/kg/injection, schedule: Q04DX002 (ip), vehicle: Klucel (hydroxypropylcellulose) (HPC) 111 % of control

CCCCCCCCCCCCCCCC
inactive: dose: 25.0 mg/kg/injection, schedule: Q04DX003 (ip), vehicle: Klucel (hydroxypropylcellulose) (HPC) 96 % of control | dose: 50.0 mg/kg/injection, schedule: Q04DX003 (ip), vehicle: Klucel (hydroxypropylcellulose) (HPC) 94 % of control | dose: 100.0 mg/kg/injection, schedule: Q01DX009 (ip), vehicle: Klucel (hydroxypropylcellulose) (HPC) 109 % of control | [17] 100 % of control and 104 % of control | dose: 200.0 mg/kg/injection, schedule: Q01DX009 (ip), vehicle: Klucel (hydroxypropylcellulose) (HPC) 96 % of control | [18] 102 % of control | dose: 400.0 mg/kg/injection, schedule: Q01DX009 (ip), vehicle: Klucel (hydroxypropylcellulose) (HPC) 89 % of control | [19] 97 % of control

O=C(Nc1ccccc1)OCCCC1CCCC1
inactive: [9] 108 % of control | [10] 105 % of control | dose: 400.0 mg/kg/injection, schedule: Q01DX009 (sc), vehicle: olive oil, sesame oil, peanut oil 100 % of control

O=C(NCCCCC(Cl)C(=O)O)c1ccccc1 (centres undefined)
inactive: [6] 100 % of control | [7] 100 % of control | [8] 100 % of control

COc1cc(/C=N/NC(=O)c2cccnc2)cc(OC)c1OC
inactive: [21] 102 % of control | [22] 107 % of control | [23] 103 % of control

COC(=O)C1C=CCC=C1OC (centres undefined)
inactive: [6] 96 % of control | [7] 105 % of control | [8] 91 % of control

C/C=C/C=C/CC
inactive: [4] 109 % of control | [5] 102 % of control | [20] 109 % of control

NC(=O)c1ccc[n+](CC(=O)Nc2ccccc2)c1
inactive: [6] 101 % of control | [7] 97 % of control | [8] 95 % of control

CCCC(O)Cc1c[nH]c(=O)[nH]c1=O (centres undefined)
inactive: [16] 103 % of control | [11] 98 % of control | [6] 95 % of control | [7] 98 % of control

CN(C)C(=O)C(=O)c1cn(C)c2ccccc12
inactive: dose: 50.0 mg/kg/injection, schedule: Q01DX001 (ip), vehicle: carboxymethylcellulose (CMC) 95 % of control | [13] 109 % of control | [14] 93 % of control | [15] 101 % of control

Cc1c[nH]c(=O)cn1
inactive: [21] 97 % of control | [1] 94 % of control | [22] 90 % of control | [2] 104 % of control | [23] 93 % of control | [3] 104 % of control

Nc1ccnc(OCc2ccccc2)n1
inactive: dose: 100.0 mg/kg/injection, schedule: Q01DX001 (ip), vehicle: saline with Tween-80 100 % of control | dose: 200.0 mg/kg/injection, schedule: Q01DX001 (ip), vehicle: saline with Tween-80 100 % of control

CC(C)(CBr)COC(=O)Nc1ccc2ccccc2c1
inactive: [16] 95 % of control | [11] 95 % of control | [12] 88 % of control

O=C(Nc1nccs1)Nc1cc([N+](=O)[O-])ccc1F
inactive: [17] 88 % of control | [18] 91 % of control | [19] 88 % of control

O=C(Nc1ccc(Cl)cc1)c1ccc([N+](=O)[O-])cc1
inactive: dose: 100.0 mg/kg/injection, schedule: Q04DX002 (ip), vehicle: gum acacia 106 % of control | dose: 200.0 mg/kg/injection, schedule: Q04DX002 (ip), vehicle: gum acacia 102 % of control | dose: 400.0 mg/kg/injection, schedule: Q04DX002 (ip), vehicle: gum acacia 98 % of control
